The results in this text go back to ChEMBL document CHEMBL1201862, “PubChem BioAssay data set” (2004).

Calls of active or inactive are those of the source.

Data set [1] is described as follows: cytotoxicity toward NIH3T3 fibroblasts, dose response, counter-screen, cell-based, ATP luminescence, mouse fibroblasts (AID 2010).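 Also: cells exposed to compound for about 90 hours before reading.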 The format is functional. A general note: The purpose of a counterscreen is to sort out artefacts and off-target activity.
A short description of data set [2]: inhibitors of intracellular T. cruzi replication, confirmation, NIH3T3 host cells, beta-gal luminescence (AID 2044).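 Also: intracellular parasites grown in NIH/3T3 mouse fibroblasts as host cells; luminescent beta-galactosidase reporter signal from transgenic T. cruzi replicating inside host cells; inhibitors lower the luminescence signal.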 The format is functional, cell-based.
Another data set concerns the target T1, Cytochrome P450 1A2 (Homo sapiens, UniProt P05177).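 Also: PubChem cytochrome P450 panel assay, CYP1A2 panel member.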
T1 sequence (P05177 whole entry): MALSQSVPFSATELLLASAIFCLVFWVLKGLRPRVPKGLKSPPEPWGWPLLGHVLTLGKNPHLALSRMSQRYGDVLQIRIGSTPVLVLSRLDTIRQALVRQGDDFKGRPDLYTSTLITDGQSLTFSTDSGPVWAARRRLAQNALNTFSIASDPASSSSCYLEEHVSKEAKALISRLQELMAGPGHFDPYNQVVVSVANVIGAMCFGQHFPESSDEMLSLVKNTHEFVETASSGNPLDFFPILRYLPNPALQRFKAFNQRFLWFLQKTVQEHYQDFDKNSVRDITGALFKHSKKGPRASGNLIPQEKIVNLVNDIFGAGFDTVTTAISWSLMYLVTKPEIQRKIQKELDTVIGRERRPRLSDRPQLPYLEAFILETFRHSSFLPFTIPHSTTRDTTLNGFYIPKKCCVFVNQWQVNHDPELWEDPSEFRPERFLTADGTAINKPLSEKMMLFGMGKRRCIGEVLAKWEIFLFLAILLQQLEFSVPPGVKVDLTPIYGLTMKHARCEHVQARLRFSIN

Another data set concerns the target Cytochrome P450 2C19 (Homo sapiens, UniProt P33261). Briefly: Cytochrome panel assay with activity outcomes. Panel member name: p450-cyp2c19 Compounds with AC50 equal or less than 10 uM are considered active. The format is functional.
In data set [3] the test system is Streptococcus sp. 'group A'. Description: growth inhibition of control SK(-) GAS strain, dose response, counter-screen for streptokinase expression inhibitor project, luminescence, kanamycin, BacTiterGlo, confirmation (AID 1900). The format is functional, organism-based.
The test system of the next data set is Streptococcus. Description: Group A Streptococcus viability loss, dose response, counter-screen for streptokinase expression inhibitor project, luminescence, BacTiterGlo (AID 1915).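 Also: potency for reduction of bacterial viability or growth.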 The format is functional, organism-based.

One may read the EC50 as the concentration at which the effect is half-maximal. In general, AC50 refers to the concentration at which the activity in the assay is half-maximal.

Sequence of Cytochrome P450 2C19 (P33261 whole entry): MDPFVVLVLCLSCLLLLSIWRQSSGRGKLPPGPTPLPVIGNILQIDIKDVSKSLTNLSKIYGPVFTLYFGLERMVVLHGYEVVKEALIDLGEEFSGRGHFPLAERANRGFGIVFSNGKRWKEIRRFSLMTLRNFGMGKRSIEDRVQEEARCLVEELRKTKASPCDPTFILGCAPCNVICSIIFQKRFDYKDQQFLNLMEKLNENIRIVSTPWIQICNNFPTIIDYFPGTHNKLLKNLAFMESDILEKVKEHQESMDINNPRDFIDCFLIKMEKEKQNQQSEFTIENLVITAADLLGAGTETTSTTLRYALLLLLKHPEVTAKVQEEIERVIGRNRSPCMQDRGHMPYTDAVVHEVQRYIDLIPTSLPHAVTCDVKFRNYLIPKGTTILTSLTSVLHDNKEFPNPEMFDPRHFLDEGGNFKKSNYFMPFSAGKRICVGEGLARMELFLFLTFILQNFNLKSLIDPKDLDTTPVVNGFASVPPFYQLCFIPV

Turning to `COc1ccc(C2CC(c3ccccc3)=NN2C(=O)COC(=O)c2cccc(S(=O)(=O)N3CCOCC3)c2)cc1` (stereo unspecified), the values for the EC50 in data set [1] and in data set [2] were > 30 µM (not active) and 3.37 µM (active), respectively. For the compound `CCC(C)(C)n1nnnc1C(c1cccc(C#N)c1)N1CCN(c2cc(C)ccc2C)CC1` (stereo unspecified), the EC50 in data set [1] was 32.6 µM (active); in data set [2], 1.73 µM (active).

As for `CN(C)C(=O)c1ccc(-c2ccc3ncnc(NC4CCNCC4)c3c2)cc1`, on Cytochrome P450 1A2, the AC50 was 20 µM (inconclusive).

Regarding `CN1CCN(c2ncc3nc(-c4ccccc4)c(=O)n(Cc4ccc(F)cc4)c3n2)CC1`, the AC50 on Cytochrome P450 2C19 (read-out: AC50) is 39.8 µM (inconclusive). As to `CN(C)CCN(C(=O)c1ccc(S(=O)(=O)N2CCCC2)cc1)c1nc2ccc(Br)cc2s1`, the EC50 in data set [1] was > 30 µM (not active); in data set [2] it was 0.122 µM (active). Turning to `Cc1ccccc1N=C(S)N1CCCC(c2nc3ccccc3[nH]2)C1` (stereo unspecified), the values for the EC50 in data set [1] and in data set [2] were > 60 µM (not active) and 1.28 µM (active), respectively. As to `Cn1cc(-c2nc3cnc(Oc4ccccc4)nc3n(Cc3cccs3)c2=O)c2ccccc21`, the AC50 at Cytochrome P450 1A2 is 3.16 µM (inconclusive). Same read-out and setting: under `OC[C@@H](O)[C@@H](O)[C@@H](O)[C@@H](O)c1nc2cc(Cl)ccc2[nH]1` stands 6.31 µM (inconclusive). With `O=C(COc1ncnc2cc([N+](=O)[O-])ccc12)NC(=O)NC1CCCCC1`, the results for the EC50 in data set [1] and in data set [2] were > 60 µM (not active) and 0.122 µM (active), respectively. `COc1ccc(NC(=O)c2cc(-c3cc(C)cc(C)c3O)[nH]n2)cc1Cl`: the concentration giving a half-maximal response (EC50) in data set [3] is 2.41 µM (active); with Streptococcus it was 3.07 µM (active).

`O=C(c1cccc(F)c1)N1CCC2(CCCN(c3ccccc3)C2)CC1`: the AC50 on Cytochrome P450 1A2 was 15.8 µM (inconclusive). As for `O=C(/C=C(\c1ccc(Cl)cc1)n1cncn1)c1ccc(Cl)cc1`, the EC50 in data set [1] is > 60 µM (not active); in data set [2], 0.475 µM (active). As for `O=C(CC(C(=O)N1CCc2ccccc21)n1ccnc1)N1CCc2ccccc2C1` (stereo unspecified), the EC50 was 11.5 µM (active) in data set [1] and 0.276 µM (active) in data set [2]. In the same order, the values of `COc1ccc(C2=NCC(CSc3nnc(-c4ccc5c(c4)OCO5)o3)S2)cc1` (stereo unspecified) are > 60 µM (not active) and 0.62 µM (active).

As for `CCn1ncc(C(=O)Nc2cc(C)on2)c1C`, the AC50 at Cytochrome P450 1A2 and on Cytochrome P450 2C19 (read-out: AC50) was 15.8 µM (inconclusive) throughout. `COC(=O)[C@@]1(Cc2ccc(F)cc2)[C@H]2c3cc(C(=O)N4CCCC4)n(CCO)c3C[C@H]2CN1C(=O)c1ccccc1`: the AC50 on Cytochrome P450 1A2 is 25.1 µM (inconclusive); at Cytochrome P450 2C19 (read-out: AC50), 39.8 µM (inconclusive).

As to `CC1CC(C)(C)Nc2ccc(N=O)cc21` (stereo unspecified), the values for the EC50 in data set [1] and in data set [2] were 3.13 µM (active) and 2.29 µM (active), respectively. Take `COc1ccc2[nH]c(C(=O)N3CCCN(Cc4ccc(F)cc4)CC3)cc2c1`: the concentration for a half-maximal effect (EC50) is > 60 µM (not active) in data set [1] and 0.23 µM (active) in data set [2]. As to `Cc1ccc(-c2cc3nc(-c4ccc(Br)cc4)cc(N)n3n2)cc1`, the figures for the EC50 (in data set [3]; in the data set with Streptococcus) were 1.59 µM (active) and 1.06 µM (active), respectively.

For `Nc1ccccc1Nc1cc(-c2cccc(Cl)c2)nn1-c1ccccc1`, the 50% effective concentration (EC50) was > 60 µM (inconclusive) in data set [1] and 4.26 µM (active) in data set [2]. On to `CCn1c(SCc2ccc(C)cc2)nnc1-c1nn(-c2ccccc2)ccc1=O`, for which, on Cytochrome P450 2C19, the AC50 entry was “inconclusive”. With `O=c1c(-c2cc(F)cc(F)c2)nc2cnc(N3CCOCC3)nc2n1CCc1ccccc1`, the AC50 on Cytochrome P450 1A2 was 2.51 µM (inconclusive). For `Cc1nc(N2CCCCC2)c2c(C)c(C(=O)Nc3cccc(C(F)(F)F)c3)sc2n1`, the figures for the EC50 in data set [1] and in data set [2] were > 60 µM (not active) and 1.54 µM (active), respectively.

Take `COc1cc(/C=C\c2ccc(OC)cc2OC)cc(OC)c1`: at Cytochrome P450 2C19, the AC50 result is “inconclusive”. Take `Cc1ccc(CONC(=O)/N=C/N(C)C)cc1`: the AC50 on Cytochrome P450 1A2 was 28.2 µM (inconclusive).
